# Assays:
# [1] = Spectrophotometric titration, inclusion complex formation with α-CD; assay type: binding; details: α-CD 0-2.3 mM
# Description: Preliminary spectral studies reveal that absorption maxima for L.Zn (Scheme 1, Formula 1A) (463 nm) tend to shift to shorter wavelength (458 nm) on addition of aqueous solution of α-CD (0-2.3 mM) in excess to the […] solution of L.Zn (Scheme 1, Formula 1A). Formation of host-guest type inclusion complex on addition of trans-1,2-bis-(4-pyridyl)ethylene, 4,4′-azopyridine (AZP) and some related bipyridine/biphenyl molecules in α-CD is reported by several researcher (Shukla, A. D.; Bajaj, H. C.; Das, A. Angew. Chem. Int. Ed. 2001, 40, 446.; Shukla, A. D.; Bajaj, H. C., Das, A. Nat. Acad. Science, 2002, 114, 431.; Beer, A. J.; Macartney, D. H. Inorg. Chem. 2000, 39, 1410.; Macartney, D. H.; Waddling, C. A.; Inorg. Chem. 1994, 33, 5912.; Philip, D.; Stoddart, J. F. Angew. Chem. Int. Ed. 1996, 35, 1154). It is also reported that inclusion in these compounds in the CD cavity influences the HOMO-LUMO energy gap and there by the absorption spectral bands-though the perturbation of the energy levels are not reported to be an appreciable one. Thus, in this present study, the observed shift of 5 nm could be attributed to the inclusion phenomena and the formation of a pseudo-rotaxane complex.
# General formula that was used for calculating the binding constants from UV-vis titrations is given below:
# Binding Constant,K=[L.Zn.CD]/{[L.Zn]free[CD]free} (5) […]
# [2] = Lipophilic nature of the dye
# [3] = tested on: Yeast cells (Saccharomyces cerevisiae); assay: Staining of Yeast cells, light microscopy and SEM; assay type: cell-based
# Description: The isolates of Saccharomyces sp. were cultured in GYE (glucose yeast extract agar) media, Bacillus sp. in Nutrient broth, and Pseudomonas sp. in King's B medium for 24 hour at 37° C. […] of this was taken and was allowed to incubate at 30 to 40° C. along with 100 μl of L.Zn (Scheme 1, Formula 1A) (1.16×10^−4 M) solution. The samples were fixed overnight at room temperature 25-30° C. with 2% (v/v) glutaraldehyde in 0.1 M phosphate buffer at pH 7.5. The samples were then washed with 0.1 M phosphate buffer (pH 7.5) at room temperature 25-30° C. for 1 hour. Post-fixation was carried out in 2% (w/v) osmium tetroxide (OsO4) in the same buffer and was washed once with 0.1 M phosphate buffer for 20 minutes. Then, the water was removed by a graded water-ethanol series; 25% ethanol for 15 min, 50% ethanol for 15 min, 75% ethanol for 30 min, 90% ethanol for 60 min, absolute alcohol for 30 min. The specimens were rinsed in buffer and coated with gold in a sputter coater (Polaron SC7620) prior to microscopy. The material was examined in a Scanning Electron Microscope (SEM) LEO 1430 VP at an accelerating Voltage of 15 kV.
# The isolates of Saccharomyces sp. were cultured in GYE (glucose yeast extract agar) media, Bacillus sp. in Nutrient broth, and Pseudomonas sp. in King's B medium for 24 hour at 37° C. 1001 of this was taken and was allowed to incubate at room temperature along with 1001 of [L.Zn]=1.16×10^−4M solution (pH 7.2, 10 mM HEPES buffer solution). The samples were fixed overnight at 25 to 35° C. with 2% (v/v) glutaraldehyde in 0.1 M phosphate buffer at pH 7.5. The samples were then; washed with 0.1 M phosphate buffer (pH 7.5) at 25 to 35° C. for 1 hour. Post-fixation was carried out in 2% (w/v) osmium tetroxide (OsO4) in the same buffer and was washed once with 0.1 M phosphate buffer for 20 minutes. Then, the water was removed by a graded water-ethanol series; 25% ethanol for 15 min, 50% ethanol for 15 min, 75% ethanol for 30 min, 90% ethanol for 60 min, absolute alcohol for 30 min. The specimens were rinsed in buffer and coated with gold in a sputter coater (Polaron SC7620) prior to microscopy. The material was examined in a scanning electron microscope (SEM) LEO 1430 VP at an accelerating Voltage of 15 kV.
# We have therefore, been able to use the receptor molecule, L.Zn (Scheme 1, Formula 1A) for staining Eukaryotic cells. Yeast cells were exposed to the receptor molecule L.Zn (Scheme 1, Formula 1A) (1.16×10^−4 M) for 20 min or L.Zn-CD (Scheme 2) (([L.Zn]=0.5×10^−3 M [α-CD]=2.92×10^−3 M) for 2 min followed by subsequent washing with water mixtures and then viewed under a light microscope (AXIO IMAGER-Carl Zeiss).
# Ethanol is known to act as a dehydrator and a good fixative of biological samples. […] This confirms the binding of the ATP ions of the cell surface to L.Zn (Scheme 1, Formula 1A) as the plausible reason for the observed staining. […] This observation could be explained on the basis of the reversible binding of ATP, produced in situ in the Yeast cells.
structure (smiles),measurement,setting,value
CN(C)c1ccc(N=Nc2ccc(S(=O)(=O)N3CCCNCCNCCCNCC3)cc2)cc1.O=[N+]([O-])[O-].O=[N+]([O-])[O-].[Zn+2] [L.Zn],association constant of inclusion complex with α-CD,[1]; aqueous solution,255 (+15) M^−1
same,association constant of inclusion complex with α-CD,[1]; aqueous solution (as printed in b187),255 (±15) M^1
same,lipophilic nature,[2],non-lipophilic
same,color of Yeast cells after treatment,"[3]; L.Zn 0.116 mM, light microscopy",pink-violet
same,growth of colonies streaked on nutrient agar plates after incubation with sensor,"[3]; Saccharamyces species in GYE media, sensor 1.0×10^−4 M, 25° C., 10 mins",colonies of the test microbes grew
same,control experiments: change in color of Yeast cells,[3]; control treatment of cells,no such change in color was observed
same,destaining of stained Yeast cells by citrate (reversible binding),[3]; excess (50 mole equivalent) of citrate ion,became colorless
same,stability of staining after washing,"[3]; washing with water/ethanol (70/30, v/v)",stable

# — patent US20130130306A1, “ZN (II) BASED COLORIMETRIC SENSOR AND PROCESS FOR THE PREPARATION THEREOF” (COUNCIL OF SCIENTIFIC & INDUSTRIAL RESEARCH, priority 2010, published 2013)
